One compound from paper PMC11470957, “Principles of paralog-specific targeted protein degradation engaging the C-degron E3 KLHDC2” (Nature Communications, 2024) can be followed below.

Values joined by “and” are separate entries in the source; they are usually repeats but may differ in a detail not shown here. Equal values may be shown once.

The target in one experiment is BRD2 (Homo sapiens, UniProt P25440). Nature of the experiment: Western blot of BRD2 levels after cellular dosing. For orientation: Immunoblotting shows a protein as a band on a membrane.
The target of the next experiment is BRD3 (Homo sapiens, UniProt Q15059). Nature of the experiment: Western blot of BRD3 levels after cellular dosing.
Setting [1] is: Fig S6b, MDA-MB468 Cells, 10 uM.

Sequence of BRD2 (P25440 whole entry): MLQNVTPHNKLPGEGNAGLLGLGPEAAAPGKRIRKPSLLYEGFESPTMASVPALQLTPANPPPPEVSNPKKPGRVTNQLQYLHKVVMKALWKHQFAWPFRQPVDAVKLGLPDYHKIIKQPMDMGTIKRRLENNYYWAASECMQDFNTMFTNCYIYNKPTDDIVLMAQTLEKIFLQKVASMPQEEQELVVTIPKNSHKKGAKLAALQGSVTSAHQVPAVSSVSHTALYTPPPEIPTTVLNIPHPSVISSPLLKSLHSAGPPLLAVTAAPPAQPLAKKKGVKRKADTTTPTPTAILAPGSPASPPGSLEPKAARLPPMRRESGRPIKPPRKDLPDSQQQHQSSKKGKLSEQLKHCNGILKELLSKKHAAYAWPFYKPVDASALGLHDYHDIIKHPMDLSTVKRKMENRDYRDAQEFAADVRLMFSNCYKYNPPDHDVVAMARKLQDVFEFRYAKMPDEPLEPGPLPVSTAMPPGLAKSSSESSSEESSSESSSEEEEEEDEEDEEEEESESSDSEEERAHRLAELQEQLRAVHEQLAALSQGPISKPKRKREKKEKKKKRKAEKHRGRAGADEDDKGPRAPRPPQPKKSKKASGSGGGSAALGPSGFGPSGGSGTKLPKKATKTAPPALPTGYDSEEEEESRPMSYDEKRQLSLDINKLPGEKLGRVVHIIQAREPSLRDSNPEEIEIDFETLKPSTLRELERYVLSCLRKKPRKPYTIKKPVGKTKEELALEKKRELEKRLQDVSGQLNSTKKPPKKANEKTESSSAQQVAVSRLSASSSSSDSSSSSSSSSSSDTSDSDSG
Sequence of BRD3 (Q15059 whole entry): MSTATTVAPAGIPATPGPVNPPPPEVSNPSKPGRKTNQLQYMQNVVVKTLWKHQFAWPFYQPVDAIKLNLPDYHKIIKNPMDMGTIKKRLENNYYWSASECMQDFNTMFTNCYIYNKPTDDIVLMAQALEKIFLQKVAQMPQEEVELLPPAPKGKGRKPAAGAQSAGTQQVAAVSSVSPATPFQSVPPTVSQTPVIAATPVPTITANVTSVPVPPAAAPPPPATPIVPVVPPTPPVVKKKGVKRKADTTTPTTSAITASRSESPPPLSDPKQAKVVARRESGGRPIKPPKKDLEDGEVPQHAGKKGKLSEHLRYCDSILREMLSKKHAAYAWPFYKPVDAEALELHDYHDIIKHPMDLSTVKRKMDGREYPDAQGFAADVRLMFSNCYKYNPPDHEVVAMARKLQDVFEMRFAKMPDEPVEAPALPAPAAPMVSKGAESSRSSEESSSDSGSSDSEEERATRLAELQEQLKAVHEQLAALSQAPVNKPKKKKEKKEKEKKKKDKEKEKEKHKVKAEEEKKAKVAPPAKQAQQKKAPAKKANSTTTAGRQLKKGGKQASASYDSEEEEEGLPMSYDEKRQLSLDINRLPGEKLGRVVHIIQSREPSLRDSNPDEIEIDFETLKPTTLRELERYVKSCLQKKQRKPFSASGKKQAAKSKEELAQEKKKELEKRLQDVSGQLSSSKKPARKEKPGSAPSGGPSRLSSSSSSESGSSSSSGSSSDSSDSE

`Cc1sc2c(c1C)C(c1ccc(Cl)cc1)=N[C@@H](CC(=O)N1CCN(CCOc3cccc4ccc(-c5nc(CC(=O)NCC(=O)O)cs5)cc34)CC1)c1nnc(C)n1-2` [SJ46421]: the “BRD2 level, Western blot quantification (DMSO = 100)” value at BRD2 (Fig 6b, KO/Rescue, 5 uM) is 112.267 and 101.949; at BRD2 (Fig 6b, U2OS, 5 uM), 136.72 and 118.225; on BRD2 (Fig S6a, 293T cells, 2.5 uM) it was 72.5135 and 88.7213; on BRD2 (Fig S6a, 293T cells, 5 uM), 75.5009 and 85.1412; at BRD2 (setting [1]) it was 62.2331 and 83.5917. Besides, the “BRD3 level, Western blot quantification (DMSO = 100)” value on BRD3 (Fig 6b, KO/Rescue, 5 uM) was 107.446 and 99.4453; at BRD3 (Fig 6b, U2OS, 5 uM) it was 111.974 and 117.271; at BRD3 (Fig S6a, 293T cells, 2.5 uM) it was 78.3969 and 86.4266; on BRD3 (Fig S6a, 293T cells, 5 uM), 73.4789 and 84.2355; on BRD3 (setting [1]), 61.0904 and 82.4759. The “BRD degradation activity in U2OS cells” value on BRD3 (wild-type U2OS, 24 h dose, Fig 6b) was “inactive”.
